The values below come from ChEMBL document CHEMBL5543162, “Discovery of a Novel Orally Bioavailable FLT3-PROTAC Degrader for Efficient Treatment of Acute Myeloid Leukemia and Overcoming Resistance of FLT3 Inhibitors” (J Med Chem, 2024).

Series [1] deals with MV4-11. The experiment in a line: Antiproliferative activity against human MV4-11 cells expressing FLT3-ITD mutant incubated for 48 hrs by CCK8 assay. In kind it is functional, cell-based. To be noted: MV4-11, 48 h.
Series [2] can be described thus: Antiproliferative activity against human THP-1 cells expressing wild-type FLT3 incubated for 48 hrs by CCK8 assay. In kind it is toxicity, cell-based. A general note: Tetrazolium dyes change colour on reduction, which living cells bring about.
Series [3] can be described thus: Antiproliferative activity against human U-937 cells expressing wild-type FLT3 incubated for 48 hrs by CCK8 assay. It counts as toxicity, cell-based.
The nature of series [4]: Antiproliferative activity against human HL-60 cells expressing wild-type FLT3 incubated for 48 hrs by CCK8 assay. It counts as toxicity, cell-based.
Series [5] has as its system MV4-11. Briefly: Antitumor activity against human MV4-11 cells xenografted in nu/nu mouse at 1.6 mg/kg, po administered daily for 2 weeks relative to control. To be noted: MV4-11, 336 h, read-out: TGI. In kind it is functional.
In series [6] the test system is MOLM-13. The experiment in a line: Antiproliferative activity against Sunitinib-resistant human MOLM-13 cells incubated for 48 hrs by CCK8 assay. It counts as functional, cell-based. To be noted: MOLM-13, 48 h.
The subject of series [7] is MOLM-13. Briefly: Antiproliferative activity against Quizartinib-resistant human MOLM-13 cells incubated for 48 hrs by CCK8 assay. In kind it is functional, cell-based. To be noted: MOLM-13, 48 h.
A short description of series [8]: Stability in human liver microsomes assessed as half life. It counts as ADME, Microsome. For orientation: Microsomes from liver hold many membrane-bound enzymes, among them those of drug oxidation.
The nature of series [9]: Stability in dog liver microsomes assessed as half life. It counts as ADME, Canis lupus familiaris, Microsome.
Series [10] can be described thus: Stability in monkey liver microsomes assessed as half life. It counts as ADME, Microsome. To be noted: chlorocebus aethiops.
Series [11] is described as follows: Stability in rat liver microsomes assessed as half life. It counts as ADME, Microsome.
The nature of series [12]: Stability in mouse liver microsomes assessed as half life. It counts as ADME, Microsome.
Series [13] can be described thus: Stability in human liver microsomes assessed as intrinsic clearance. In kind it is ADME, Microsome. To be noted: read-out: CLH.
Series [14] in a line: Stability in dog liver microsomes assessed as intrinsic clearance. In kind it is ADME, Canis lupus familiaris, Microsome. Particulars: read-out: CLH.
Series [15] can be described thus: Stability in monkey liver microsomes assessed as intrinsic clearance. Particulars: chlorocebus aethiops, read-out: CLH. In kind it is ADME, Microsome.
Series [16] can be described thus: Stability in rat liver microsomes assessed as intrinsic clearance. In kind it is ADME, Microsome. Particulars: read-out: CLH.
The nature of series [17]: Stability in mouse liver microsomes assessed as intrinsic clearance. In kind it is ADME, Microsome. To be noted: read-out: CLH.
Series [18] can be described thus: Stability in human liver microsomes assessed as hepatic clearance. It counts as ADME, Microsome.
Series [19] is described as follows: Stability in dog liver microsomes assessed as hepatic clearance. It counts as ADME, Canis lupus familiaris, Microsome.
A short description of series [20]: Stability in monkey liver microsomes assessed as hepatic clearance. In kind it is ADME, Microsome. Particulars: chlorocebus aethiops.
A short description of series [21]: Stability in rat liver microsomes assessed as hepatic clearance. In kind it is ADME, Microsome.
Series [22] can be described thus: Stability in mouse liver microsomes assessed as hepatic clearance. It counts as ADME, Microsome.

For `Cc1c(NC(=O)CCN2CCCC2)c[nH]c1/C=C1\C(=O)Nc2ccc(F)cc21`, the IC50 (usually the point on the concentration scale where inhibition reaches its midpoint) in the series with MV4-11 [1] came to 0.024 µM; in the series on MOLM-13 [6], 0.811 µM; in the series on MOLM-13 [7] it was 1.52 µM. Moreover, the concentration for half-maximal inhibition (IC50) at 48 h in [2] is 1.5 µM; in [3] it was 2.77 µM; in series [4] it was 6.45 µM. Further, the inhibition in vivo at 1.6 mg/kg with MV4-11 [5] turned out to be 39.8%. Besides, the half-life (usually how long it takes for the measured level to halve) in series [8] turned out to be 3.21 h; in [9], 1.5 h; in [10], 0.983 h; in [11], 1.01 h; in series [12], 0.758 h. Also, the CLint scaled in [13] turned out to be 0.499 L/h/kg; in [14] it was 1.33 L/h/kg; in series [15] it was 1.9 L/h/kg; in [16] it was 2.46 L/h/kg; in [17], 7.2 L/h/kg. Also, the CLhep predicted in series [18] was 0.356 L/h/kg; in series [19], 0.774 L/h/kg; in [20], 1.1 L/h/kg; in series [21], 1.66 L/h/kg; in series [22], 3.09 L/h/kg.
